Reference: patent publication US11286268B1, “EIF4E-inhibiting compounds and methods” (EFFECTOR THERAPEUTICS, INC., priority 2019, dated 2022)
pIC50: −log10 of the molar value. Where two headings read alike, the source gives them in different places.

Biological target: recombinant eIF4E (Homo sapiens (Human), UniProt P06730)
Experiment: Fluorescence polarization competition assay for eIF4E binding potency
Procedure, shortened: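 Protein and fluorescent cap-analog probe (EDA-m7GDP-ATTO-550) were mixed first for 5 min, after which serially diluted compound was added to final 75 nM eIF4E, 20 nM probe, 1% DMSO. Reactions equilibrated 30 min at room temperature before polarization was measured.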

[1] = fluorescence polarization competition, 75 nM recombinant eIF4E, 20 nM EDA-m7GDP-ATTO-550, IC50 class, read-out: elF4E FP
[2] = inhibition of eIF4E/EDA-m7GDP-ATTO-550 binding by 50%, Table 4B calculated values, read-out: IC50
[3] = inhibition of eIF4E/EDA-m7GDP-ATTO-550 binding, calculated IC50 values, Table 4B, read-out: IC50

recombinant eIF4E, sequence (P06730 whole entry): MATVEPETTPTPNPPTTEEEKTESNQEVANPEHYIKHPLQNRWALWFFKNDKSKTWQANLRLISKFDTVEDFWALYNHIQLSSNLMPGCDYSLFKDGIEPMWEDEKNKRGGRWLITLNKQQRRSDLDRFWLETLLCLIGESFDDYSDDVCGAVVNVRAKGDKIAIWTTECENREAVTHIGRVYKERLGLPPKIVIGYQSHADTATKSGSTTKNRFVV

| Compound | pIC50 [1] | pIC50 [2] | pIC50 [3] |
| --- | --- | --- | --- |
| Cc1cc(-c2cc(Cl)ccc2OCCn2c(C)nc3nc(C(F)(F)F)c(N4CCN(C)CC4)cc3c2=O)c2scc(C(=O)O)c2n1 [compound 849] | > 7.30 | 7.84 |  |
| COCc1ncc2nc(C)n(CCOc3ccc(Cl)cc3-c3cc(C)nc4c(C(=O)O)csc34)c(=O)c2c1C#N [compound 1066] | 6.00 to 7.30 | 7.24 |  |
| Cc1cc(-c2cc(Cl)ccc2OCCn2c(C)nc3cc(C(F)(F)F)cc(C#N)c3c2=O)c2scc(C(=O)NCC(=O)O)c2n1 [compound 398] | 6.00 to 7.30 | 6.83 |  |
| C#Cc1c(-c2cc(Cl)ccc2OCCn2c(C(F)F)nc3cccc(C#N)c3c2=O)csc1C(=O)O [compound 2034] |  |  | 8.21 |
| Cc1cc(-c2cc(Cl)ccc2OCCn2c(C)nc3cnc(-c4ccc(C(F)(F)F)cc4)c(C#N)c3c2=O)c2scc(C(=O)O)c2n1 [compound 952] | > 7.30 | 7.35 |  |
| Cc1nc2cc(C(F)F)c(OC(F)(F)F)c(C#N)c2c(=O)n1CCOc1ccc(Cl)cc1-c1ccnc2c(C(=O)O)csc12 [compound 551] | > 7.30 | 7.53 |  |
| Cc1cnc(C)c(-c2c(C(F)(F)F)cc3nc(C)n(CCOc4ccc(Cl)cc4-c4cc(C)nc5c(C(=O)O)csc45)c(=O)c3c2C#N)n1 [compound 968] | > 7.30 | 8.05 |  |
| Cc1ccc(-c2cc(Cl)ccc2OCCn2c(C)nc3cc(C(F)(F)F)c(CN(C)C)c(C#N)c3c2=O)c2scc(C(=O)O)c12 [compound 564] | > 7.30 | 7.39 |  |
| Cc1cc(-c2cc(Cl)ccc2OCCn2c(C)nc3c(F)cc(C(F)F)c(C#N)c3c2=O)c2scc(C(=O)NS(C)(=O)=O)c2n1 [compound 566] | > 7.30 | 7.79 |  |
| COc1c(C)n(CCOc2ccc(Cl)cc2-c2ccnc3c(C(=O)O)csc23)c(=O)c2c(C#N)cc(C(F)(F)F)cc12 [compound 309] | 6.00 to 7.30 | 7.28 |  |
| Cc1nc2c(C(F)F)ccc(C#N)c2c(=O)n1CCOc1ccc(Cl)cc1-c1ccnc2c(C(=O)O)csc12 [compound 360] | > 7.30 | 7.37 |  |
| N#Cc1cc(C(F)(F)F)cc2nc(C(F)F)n(CCOc3ccc(Cl)cc3-c3ccnc4c(C(=O)O)csc34)c(=O)c12 [compound 65] | > 7.30 | 7.62 |  |
| Cc1nc2cnc(C#CCN(C)CC(F)(F)F)c(C#N)c2c(=O)n1CCOc1ccc(Cl)cc1-c1ccnc2c(C(=O)O)csc12 [compound 1327] |  |  | 7.71 |
| Cc1nc2cnc(C#CC3(N(C)C)CC3)c(C#N)c2c(=O)n1CCOc1ccc(Cl)cc1-c1ccnc2c(C(=O)O)csc12 [compound 1329] |  |  | 7.45 |
| Cc1cc(-c2cc(Cl)ccc2OCCn2c(C)nc3cnc(C4CC4(F)F)c(C#N)c3c2=O)c2scc(C(=O)O)c2n1 (stereo not shown) [compound 807] | > 7.30 |  |  |
| Cc1nc2cnc(N(C)C3CCN(C4CC(F)(F)C4)CC3)c(C#N)c2c(=O)n1CC#Cc1ccc(Cl)cc1-c1ccnc2c(C(=O)O)csc12 [compound 1165] | > 7.30 | 7.65 |  |
| CC(=O)c1cnn2c(-c3cc(Cl)ccc3OCCn3c(C)nc4cc(C(F)(F)F)cc(C#N)c4c3=O)cc(C)nc12 [compound 414] | > 7.30 | 7.69 |  |
| Cc1nc2cnc(N(C)C3CCN(CC(F)(F)F)CC3)c(C#N)c2c(=O)n1CC#Cc1ccc(Cl)cc1-c1ccnc2c(C(=O)NS(=O)(=O)c3ccc(F)cc3F)csc12 [compound 1550] |  |  | 7.64 |
| Cc1nc2cc(OC(F)(F)F)cc(C#N)c2c(=O)n1CCOc1ccc(Cl)cc1-c1ccnc2c(C(=O)O)csc12 [compound 456] | > 7.30 | 7.96 |  |
| O=C(O)c1cccc(-c2cc(Cl)ccc2OCCn2ccc3ncncc3c2=O)c1 [compound 14] | < 6.00 | < 5.52 |  |
| Cc1nc2cnc(N(C)C3CCN(C4CC(F)(F)C4)CC3)c(C#N)c2c(=O)n1CC#Cc1ccc(Cl)cc1-c1ccnc2c(C(=O)NS(=O)(=O)CCC#N)csc12 [compound 1826] |  |  | 7.74 |
| Cc1nc2cnc(N(C)C3CCN(C4(C(F)(F)F)CC4)CC3)c(C#N)c2c(=O)n1CC#Cc1ccc(Cl)cc1-c1ccnc2c(C(=O)O)csc12 [compound 1530] |  |  | 7.47 |
| Cc1nc2cnc(N(C)C3CCN(CC(F)(F)C(F)F)CC3)c(C#N)c2c(=O)n1CCOc1ccc(Cl)cc1-c1ccnc2c(C(=O)O)csc12 [compound 1515] |  |  | 7.49 |
| Cc1cc(-c2cc(Cl)ccc2OCCn2c(C)nc3cc(C(F)(F)F)c(-c4ccccc4C#N)nc3c2=O)c2scc(C(=O)O)c2n1 [345a] |  | 7.36 |  |
| Cc1cc(-c2cc(Cl)ccc2OCCn2c(C)nc3cc(OC(F)F)c(CCN(C)C)c(C#N)c3c2=O)c2scc(C(=O)O)c2n1 [compound 592] | > 7.30 | 7.99 |  |
| CNS(=O)(=O)c1ccc(C#N)c2c(=O)n(CCOc3ccc(Cl)cc3-c3ccnc4c(C(=O)O)csc34)c(C)nc12 [compound 238] | > 7.30 | 7.42 |  |

| Compound | pIC50 [1] | pIC50 [2] | pIC50 [3] |
| --- | --- | --- | --- |
| COC(=O)c1csc2c(-c3cc(Cl)ccc3C#CCn3c(C)nc4cnc(N5CCN(CCOC(F)(F)F)CC5)c(C#N)c4c3=O)ccnc12 [compound 1104] | 6.00 to 7.30 | 6.20 |  |
| Cc1cc(-c2cc(Cl)ccc2OCCn2c(C)nc3c(C(F)(F)F)ncc(C#N)c3c2=O)c2scc(C(=O)O)c2n1 [compound 340] | > 7.30 | 8.30 |  |
| Cc1cc(-c2cc(Cl)ccc2OCCn2c(C)nc3cc4c(c(C#N)c3c2=O)CCNC4)c2scc(C(=O)O)c2n1 [compound 334] | > 7.30 | 7.98 |  |
| Cc1nc2cc(OC(F)(F)F)c(Cl)c(C#N)c2c(=O)n1CCOc1ccc(Cl)cc1-c1ccnc2c(C(=O)O)csc12 [compound 542] | > 7.30 | 7.69 |  |
| Cc1nc2cnc(N(C)C3CCN(CC(F)(F)C(F)F)CC3)c(C#N)c2c(=O)n1CC#Cc1ccc(Cl)cc1-c1ccnc2c(C(=O)NS(=O)(=O)c3ccccn3)csc12 [compound 1706] |  |  | 7.92 |
| Cc1nc2cc(F)c(S(=O)(=O)N(C)C)c(C#N)c2c(=O)n1CCOc1ccc(Cl)cc1-c1ccnc2c(C(=O)O)csc12 [compound 281] | > 7.30 | 7.43 |  |
| Cc1nc2cc(Cl)c(CN(C)C)c(C#N)c2c(=O)n1CCOc1ccc(Cl)cc1-c1ccnc2c(C(=O)O)csc12 [compound 509] | 6.00 to 7.30 | 6.90 |  |
| Cc1nc2cnc(N3CCN(CC(F)F)CC3)c(C#N)c2c(=O)n1CC#Cc1ccc(Cl)cc1-c1ccnc2c(C(=O)NS(C)(=O)=O)csc12 [compound 1487] |  |  | 7.60 |
| Cc1cc(-c2cc(Cl)ccc2OCCn2c(C)nc3c(C)nc(C)c(C#N)c3c2=O)c2scc(C(=O)O)c2n1 [compound 492] | > 7.30 | 7.53 |  |
| Cc1nc2cc(C(F)(F)F)c(N3CCN(C)CC3)c(C#N)c2c(=O)n1CC#Cc1ccc(Cl)cc1-c1cccc(C(=O)O)c1 [compound 1154] | > 7.30 | 7.85 |  |
| Cc1nc2cnc(C#N)cc2c(=O)n1CCOc1ccc(Cl)cc1-c1cccc(C(=O)O)c1 [compound 1995] |  |  | 7.23 |
| Cc1cc(-c2cc(Cl)ccc2OCCn2c(C)nc3cc(C(F)(F)F)c(N4CCCC4)c(C#N)c3c2=O)c2scc(C(=O)O)c2n1 [compound 422] | > 7.30 | 7.94 |  |
| Cc1nc2cc(F)c(C#N)c(C#N)c2c(=O)n1CCOc1ccc(Cl)cc1-c1ccnc2c(C(=O)O)csc12 [compound 276] | > 7.30 | 7.64 |  |
| Cc1cc(-c2cc(Cl)ccc2OCCn2c(C)nc3cc(C(F)(F)F)c(-c4cnc(C)c(C)c4)c(C#N)c3c2=O)c2scc(C(=O)O)c2n1 [compound 389] | > 7.30 | 7.91 |  |
| Cc1nc2cc(C(F)(F)F)cc(C#N)c2c(=O)n1CCOc1ccc(Cl)cc1N1CCC(CC(=O)O)CC1 [compound 328] | < 6.00 | 5.88 |  |
| Cc1nc2cc(C(F)(F)F)c(N3CCC4(CC3)CN(CC(F)F)C4)c(C#N)c2c(=O)n1CCOc1ccc(Cl)cc1-c1ccnc2c(C(=O)NS(C)(=O)=O)csc12 [compound 1913] |  |  | 7.64 |
| Cc1nc2cc(C(F)(F)F)c(N3CCN(C4CC4)CC3)c(C#N)c2c(=O)n1CCOc1ccc(Cl)cc1-c1ccnc2c(C(=O)O)csc12 [compound 1291] |  |  | 7.39 |
| Cc1cc(-c2cc(Cl)ccc2OCCn2c(C)nc3cc(C(F)(F)F)c(Cc4ccccn4)nc3c2=O)c2scc(C(=O)O)c2n1 [compound 390] | > 7.30 | 8.76 |  |
| Cc1nc2cnc(N(C)C3CCN([C@H]4C[C@H](OC(F)F)C4)CC3)c(C#N)c2c(=O)n1CC#Cc1ccc(Cl)cc1-c1ccnc2c(C(=O)NS(=O)(=O)c3ccccn3)csc12 [compound 1763] |  |  | 7.63 |
| Cc1nc2cnc(N(C)C3CCN(CC(C)(F)F)CC3)c(C#N)c2c(=O)n1CC#Cc1ccc(Cl)cc1-c1ccnc2c(C(=O)NS(=O)(=O)c3ccc(C(F)(F)F)cn3)csc12 [compound 1679] |  |  | 7.53 |
| Cc1cc(-c2cc(Cl)ccc2OCCn2c(C)nc3cnc(Oc4ccccc4)c(C#N)c3c2=O)c2scc(C(=O)O)c2n1 [compound 1038] | > 7.30 | 7.41 |  |
| Cc1cc(-c2cc(Cl)ccc2OCCn2c(C)nc3cnc(OC4CN(C)C4)c(C#N)c3c2=O)c2sc(C)c(C(=O)O)c2n1 [compound 846] | > 7.30 | 7.42 |  |
| Cc1cc(-c2cc(Cl)ccc2OCCn2c(C)nc3cnc(N4[C@@H]5C[C@H]4CN(C)C5)c(C#N)c3c2=O)c2sc(C)c(C(=O)O)c2n1 [compound 1203] | > 7.30 |  | 8.04 |
| Cc1nc2cnc(N(C)[C@H]3CC[C@@H](N(C)CCF)CC3)c(C#N)c2c(=O)n1CC#Cc1ccc(Cl)cc1-c1ccnc2c(C(=O)O)csc12 [compound 1533] |  |  | 7.66 |
| Cc1nc2cnc(N(C)[C@H]3CC[C@@H](N4CC(F)(F)C4)CC3)c(C#N)c2c(=O)n1CC#Cc1ccc(Cl)cc1-c1ccnc2c(C(=O)O)csc12 [compound 1100] | > 7.30 | 7.47 |  |
